Test results as given in PubChem BioAssay AID330 (DTP/NCI, 2004).
“And” between values parts separate entries of the source, which are not always exact repeats. Equal values may be shown once. Toxic doses and inconclusive results are not listed.

System: P388 leukemia ip, CD2F1 mice, survival T/C
Test: NCI In Vivo Anticancer Drug Screen. Data for tumor model P388 Leukemia (intraperitoneal) in CD2F1 (CDF1) mice
Conditions: endpoint: median survival time, higher = longer survival
In short: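 Mice carrying the transplanted tumor received test compound or vehicle. Survival was recorded in each group, and the value is the treated-group measurement divided by that of the vehicle-treated control group.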

[1] = dose: 50.0 mg/kg/injection, schedule: Q01DX005 (ip), vehicle: Klucel (hydroxypropylcellulose) (HPC)
[2] = dose: 100.0 mg/kg/injection, schedule: Q01DX005 (ip), vehicle: Klucel (hydroxypropylcellulose) (HPC)
[3] = dose: 200.0 mg/kg/injection, schedule: Q01DX005 (ip), vehicle: Klucel (hydroxypropylcellulose) (HPC)
[4] = dose: 50.0 mg/kg/injection, schedule: Q01DX009 (ip), vehicle: saline with Tween-80
[5] = dose: 100.0 mg/kg/injection, schedule: Q01DX009 (ip), vehicle: saline with Tween-80
[6] = dose: 200.0 mg/kg/injection, schedule: Q01DX009 (ip), vehicle: saline with Tween-80
[7] = dose: 12.5 mg/kg/injection, schedule: Q01DX005 (ip), vehicle: Klucel (hydroxypropylcellulose) (HPC)
[8] = dose: 25.0 mg/kg/injection, schedule: Q01DX005 (ip), vehicle: Klucel (hydroxypropylcellulose) (HPC)
[9] = dose: 100.0 mg/kg/injection, schedule: Q04DX002 (ip), vehicle: Klucel (hydroxypropylcellulose) (HPC)
[10] = dose: 200.0 mg/kg/injection, schedule: Q04DX002 (ip), vehicle: Klucel (hydroxypropylcellulose) (HPC)

**Q.** Which results are given for `OCC(F)(F)C(F)(F)C(F)(F)F`?
**A.** T/C (dose: 100.0 mg/kg/injection, schedule: Q04DX003 (ip), vehicle: saline): 104 % of control; T/C (dose: 200.0 mg/kg/injection, schedule: Q04DX003 (ip), vehicle: saline): 90 % of control; T/C (dose: 400.0 mg/kg/injection, schedule: Q04DX003 (ip), vehicle: saline): 90 % of control

**Q.** For `CN(CN(C)N=Nc1ccc(Br)cc1)CN(C)N=Nc1ccc(Br)cc1`, which T/C (dose: 60.0 mg/kg/injection, schedule: Q01DX005 (ip), vehicle: Klucel (hydroxypropylcellulose) (HPC)) is on record?
**A.** Its T/C is 100 % of control.

**Q.** What about the T/C (dose: 120.0 mg/kg/injection, schedule: Q01DX005 (ip), vehicle: Klucel (hydroxypropylcellulose) (HPC)) of the same compound?
**A.** The T/C was 92 % of control.

**Q.** With `COc1ccc(/C=C2/N=C(c3ccc(Cl)c(Cl)c3)OC2=O)cc1OC` as the compound, how does the T/C [1] read?
**A.** Its T/C is 90 % of control.

**Q.** And the T/C [2]?
**A.** Its T/C is 88 % of control.

**Q.** What about the T/C [3] of the same compound?
**A.** The T/C was 94 % of control.

**Q.** With `CC(CN=C(CC(=O)c1ccccc1)c1ccccc1)N=C(CC(=O)c1ccccc1)c1ccccc1` (stereo unspecified) as the compound, how does the T/C [4] read?
**A.** The T/C was 104 % of control.

**Q.** What about the T/C [5] of the same compound?
**A.** The T/C was 103 % of control.

**Q.** And the T/C [6]?
**A.** The T/C was 97 % of control.

**Q.** How did the T/C (dose: 50.0 mg/kg/injection, schedule: Q01DX009 (ip), vehicle: saline) turn out when `CCN(CC)CCCNc1c(OC)cc(C)c2sc3ccccc3c(=O)c12` was run?
**A.** The T/C was 102 % of control.

**Q.** `CC(=O)CC(=O)c1ccccc1.CC(=O)CC(=O)c1ccccc1.[CH3][Sn][CH3]` was tested. Which T/C (dose: 100.0 mg/kg/injection, schedule: Q01DX001 (ip), vehicle: Klucel (hydroxypropylcellulose) (HPC)) did it give?
**A.** Its T/C is 95 % of control.

**Q.** And the T/C (dose: 200.0 mg/kg/injection, schedule: Q01DX001 (ip), vehicle: Klucel (hydroxypropylcellulose) (HPC))?
**A.** The T/C was 99 % of control.

**Q.** And the T/C (dose: 400.0 mg/kg/injection, schedule: Q01DX001 (ip), vehicle: Klucel (hydroxypropylcellulose) (HPC))?
**A.** The T/C was 96 % of control.

**Q.** For `CCOC(=O)/C=C1\COc2nc(N)[nH]c(=O)c2N1`, which T/C [7] is on record?
**A.** The T/C was 93 % of control.

**Q.** And the T/C [8]?
**A.** Its T/C is 91 % of control.

**Q.** What about the T/C [1] of the same compound?
**A.** The T/C was 89 % of control.

**Q.** What about the T/C [2] of the same compound?
**A.** Its T/C is 94 % of control.

**Q.** And the T/C [3]?
**A.** Its T/C is 91 % of control.

**Q.** Which results are given for `N#CC1C(=O)NC(=O)C(C#N)C1C1C(=O)NC2CCCCC21` (stereo unspecified)?
**A.** T/C [4]: 114 % of control; T/C [5]: 99 % of control; T/C [6]: 112 % of control

**Q.** With `O=C1NC(O)c2cc(Br)cc(Br)c2O1` (stereo unspecified) as the compound, how does the T/C [7] read?
**A.** Its T/C is 100 % of control.

**Q.** What about the T/C [8] of the same compound?
**A.** Its T/C is 101 % of control.

**Q.** And the T/C [1]?
**A.** Its T/C is 103 % of control.

**Q.** Which results are given for `COc1cccc(CN2CC(C)N(N=Cc3c4c(O)c5c(O)c(C)c6c(c5c3O)C(=O)C(C)(O/C=C/C(OC)C(C)C(OC(C)=O)C(C)C(O)C(C)C(O)C(C)/C=C/C=C(\C)C(=O)N4)O6)C(C)C2)c1` (stereo unspecified)?
**A.** T/C [4]: 96 % of control; T/C [5]: 95 % of control; T/C [6]: 99 % of control

**Q.** With `CN(C=O)S(C)(=O)=O` as the compound, how does the T/C [4] read?
**A.** Its T/C is 100 % of control.

**Q.** What about the T/C [5] of the same compound?
**A.** The T/C was 100 % of control.

**Q.** And the T/C [6]?
**A.** Its T/C is 100 % of control.

**Q.** Which results are given for `CCC/C=C(/C=N/Nc1ccc([N+](=O)[O-])cc1[N+](=O)[O-])CC`?
**A.** T/C (dose: 12.5 mg/kg/injection, schedule: Q01DX005 (ip), vehicle: saline with Tween-80): 97 % of control; T/C (dose: 25.0 mg/kg/injection, schedule: Q01DX005 (ip), vehicle: saline with Tween-80): 109 % of control; T/C (dose: 50.0 mg/kg/injection, schedule: Q01DX005 (ip), vehicle: saline with Tween-80): 91 % of control and 95 % of control

**Q.** For `Nc1ccc(S(=O)(=O)Nc2cccc3[nH]c(=O)oc23)cc1`, which T/C (dose: 50.0 mg/kg/injection, schedule: Q04DX002 (ip), vehicle: Klucel (hydroxypropylcellulose) (HPC)) is on record?
**A.** The T/C was 101 % of control.

**Q.** And the T/C [9]?
**A.** Its T/C is 99 % of control.

**Q.** And the T/C [10]?
**A.** The T/C was 100 % of control.

**Q.** What does the source list for `Cn1cnc2cc(N3CCOCC3)c(N)cc2c1=O`?
**A.** T/C [9]: 106 % of control; T/C [10]: 102 % of control; T/C (dose: 400.0 mg/kg/injection, schedule: Q04DX002 (ip), vehicle: Klucel (hydroxypropylcellulose) (HPC)): 102 % of control
